Measurements taken from patent publication US5696151A, “Compounds useful for the inhibition of the replication of HIV-1 and HIV-1 mutants” (priority 1995, dated 1997).
Converted amounts (≈) assume the structure as drawn.

Legend:
HIV-1(IIIB) = test: Inhibition of HIV-1 induced syncytium formation in CEM cells, wild type; format: cell-based; conditions: WT = HIV-1(IIIB), day 4, averages of 2 to 3 independent experiments; for Antiviral Activity of Comparative Compounds EC50, WT: Table 2B; for EC50: Human immunodeficiency virus 1, IIIB, CCRF-CEM, 96 h, Table 2A, read-out: Antiviral Activity EC50, WT
How it was run: (§1)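 CEM cells (≈300,000 cells/ml) were infected with about 100 CCID50 of HIV-1(IIIB) or an RT mutant strain and added to 5-fold serial dilutions of test compound. Inhibition of HIV-1-induced syncytium formation was scored microscopically on day 4 post infection.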

HIV-1/100-Ile = test: Inhibition of HIV-1 induced syncytium formation in CEM cells, RT mutant 100-Ile; format: cell-based; conditions: day 4, averages of 2 to 3 independent experiments; for Antiviral Activity of Comparative Compounds EC50, 100-Ile: Table 2B; for EC50: Human immunodeficiency virus 1, CCRF-CEM, 96 h, Table 2A, read-out: Antiviral Activity EC50, 100-Ile
How it was run: as §1

HIV-1/106-Ala = test: Inhibition of HIV-1 induced syncytium formation in CEM cells, RT mutant 106-Ala; format: cell-based; conditions: day 4, averages of 2 to 3 independent experiments; for Antiviral Activity of Comparative Compounds EC50, 106-Ala: Table 2B; for EC50: Human immunodeficiency virus 1, CCRF-CEM, 96 h, Table 2A, read-out: Antiviral Activity EC50, 106-Ala
How it was run: as §1

HIV-1/Lys-138 = test: Inhibition of HIV-1 induced syncytium formation in CEM cells, RT mutant 138-Lys; format: cell-based; conditions: day 4, averages of 2 to 3 independent experiments; for Antiviral Activity of Comparative Compounds EC50, 138-Lys: Table 2B; for EC50: Human immunodeficiency virus 1, CCRF-CEM, 96 h, Table 2A, read-out: Antiviral Activity EC50, 138-Lys
How it was run: as §1

HIV-1/181-Cys = test: Inhibition of HIV-1 induced syncytium formation in CEM cells, RT mutant 181-Cys; format: cell-based; conditions: day 4, averages of 2 to 3 independent experiments; for Antiviral Activity of Comparative Compounds EC50, 181-Cys: Table 2B; for EC50: Human immunodeficiency virus 1, CCRF-CEM, 96 h, Table 2A, read-out: Antiviral Activity EC50, 181-Cys
How it was run: as §1

CEM cells = test: in vitro; format: cell-based; conditions: Table 2B; CEM cell proliferation; averages of 2 to 3 independent experiments
How it was run: (§2)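 In CEM cells, the cytostatic value is the compound concentration giving 50% inhibition of cell proliferation. Parallel work used HIV-1(IIIB) and culture-selected resistant strains Lys-138, 181-Cys, 188-His and 188-Leu.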

HIV-1/103-Asn = test: Inhibition of HIV-1 induced syncytium formation in CEM cells, RT mutant 103-Asn; format: cell-based; conditions: Human immunodeficiency virus 1, CCRF-CEM, 96 h, Table 2A, day 4, averages of 2 to 3 independent experiments, read-out: Antiviral Activity EC50, 103-Asn
Excerpt: (§3) CEM cells were obtained from the American Tissue Cell Culture Collection (Rockville, Md.). HIV-1(IIIB) was originally obtained from the culture supernatant of persistently HIV-1-infected H9 cells and was provided by R. C. Gallo and M. Popovic (National Cancer Institute, National Institutes of Health, Bethesda, Md.). […] 67: 5353-5359 (1993); HIV-1/Lys-138 ("Lys-138") was selected for resistance against TSAO-m^3T as described in Balzarini et al, Virology 192: 246-253 (1993) and Balzarini et al, Proc. Nat. Acad. Sci. USA 90: 6952-6956 (1993); HIV-1/181-Cys ("181-Cys") was selected for resistance against pyridinone L-697,661 as described in Balzarini et al, Virology 192: 246-253 (1993); and HIV-1/188-His ("188-His") was selected for resistance against HEPT as described in Balzarini et al, Mol. Pharmocol. 44: 694-701 (1993). 188-His was then further converted to HIV-1/188-Leu "188-Leu") upon further passage in cell culture in the absence of the HEPT.
(§4) CEM cells were suspended at ≈300,000 cells per ml of culture medium and infected with approximately 100 CCID50 (CCID50 being the 50% cell culture infective dose) of HIV-1(IIIB) or one of the HIV-1 RT mutant strains described above. Then 100 μl of the infected cell suspensions was added to 200 μl microtiter plate wells containing 100 μl of appropriate serial (5-fold) dilutions of the test compounds. The inhibitory effect of the test compounds on HIV-1 induced syncytium formation in CEM cells was examined microscopically on day 4 post infection.

HIV-1/188-Leu = test: Inhibition of HIV-1 induced syncytium formation in CEM cells, RT mutant 188-Leu; format: cell-based; conditions: Human immunodeficiency virus 1, CCRF-CEM, 96 h, Table 2A, day 4, averages of 2 to 3 independent experiments, read-out: Antiviral Activity EC50, 188-Leu
Excerpt: as §3, §4

in vitro = format: cell-based; conditions: human, cem cells, CC50 (50% cytostatic concentration), Table 2A; CEM cell proliferation; averages of 2 to 3 independent experiments
How it was run: as §2

HIV-1 RT mutant strains = test: Antiviral activity in CEM cells against the HIV-1 RT mutant strains; format: cell-based; conditions: Human immunodeficiency virus 1, CCRF-CEM, read-out: EC50 values against the HIV-1 RT mutant strains
Excerpt: as §3
as §4, with “The inhibitory effect of the test compounds on HIV-1 induced syncytium formation in CEM cells was examined microscopically on day 4 post infection.” left out

[1] = tested on: HIV-1(IIIB) and the HIV-1 RT mutants; test: Antiviral activity in CEM cells against wild type and RT mutants; format: cell-based
Excerpt: as §3
as §4, with “The inhibitory effect of the test compounds on HIV-1 induced syncytium formation in CEM cells was examined microscopically on day 4 post infection.” left out

[2] = tested on: HIV-1 strains containing the 100 Leu →Ile mutation in their RT; conditions: background, Balzarini I and II; cited from earlier work
[3] = tested on: 181 Tyr →Cys mutation in the RT of HIV-1 strains; conditions: background, Balzarini I and II; cited from earlier work

## Cc1sccc1C(=O)Nc1ccc(Cl)c(C(=O)OC2CCCCC2)c1 [Compound 58]
HIV-1(IIIB)
  Antiviral Activity of Comparative Compounds EC50, WT: 0.19 µg/mL
HIV-1/100-Ile
  Antiviral Activity of Comparative Compounds EC50, 100-Ile: 5.5 µg/mL
HIV-1/106-Ala
  Antiviral Activity of Comparative Compounds EC50, 106-Ala: 7.0 µg/mL
HIV-1/Lys-138
  Antiviral Activity of Comparative Compounds EC50, 138-Lys: 6.0 µg/mL
HIV-1/181-Cys
  Antiviral Activity of Comparative Compounds EC50, 181-Cys: 5.0 µg/mL
CEM cells
  CC50 (50% cytostatic concentration): 6.5 µg/mL (≈ 17.2 µM)

## Cc1sccc1C(=S)Nc1ccc(Cl)c(C(=O)OC2CCCCC2)c1 [Compound 59]
HIV-1(IIIB)
  Antiviral Activity of Comparative Compounds EC50, WT: 0.09 µg/mL
HIV-1/100-Ile
  Antiviral Activity of Comparative Compounds EC50, 100-Ile: 0.65 µg/mL
HIV-1/106-Ala
  Antiviral Activity of Comparative Compounds EC50, 106-Ala: 0.60 µg/mL
HIV-1/Lys-138
  Antiviral Activity of Comparative Compounds EC50, 138-Lys: 0.40 µg/mL
HIV-1/181-Cys
  Antiviral Activity of Comparative Compounds EC50, 181-Cys: 0.35 µg/mL
CEM cells
  CC50 (50% cytostatic concentration): 15 µg/mL (≈ 38.1 µM)

## Cc1occc1C(=S)Nc1ccc(Cl)c(C=NOC(C)(C)C)c1 [Compound 114]
HIV-1(IIIB)
  Antiviral Activity of Comparative Compounds EC50, WT: 0.05 µg/mL
HIV-1/100-Ile
  Antiviral Activity of Comparative Compounds EC50, 100-Ile: 0.085 µg/mL
HIV-1/106-Ala
  Antiviral Activity of Comparative Compounds EC50, 106-Ala: 0.13 µg/mL
HIV-1/Lys-138
  Antiviral Activity of Comparative Compounds EC50, 138-Lys: 0.075 µg/mL
HIV-1/181-Cys
  Antiviral Activity of Comparative Compounds EC50, 181-Cys: 0.075 µg/mL
CEM cells
  CC50 (50% cytostatic concentration): 5.8 µg/mL (≈ 16.5 µM)

## CC(C)=CCOc1cc(NC(=S)c2ccoc2C)ccc1Cl [Compound IA, N-[4-chloro-3-(3-methyl-2-butenyloxy)phenyl]-2-methyl-3-furancarbothioamide]
HIV-1(IIIB)
  EC50: 0.003 µg/mL (≈ 0.00893 µM)
HIV-1/100-Ile
  EC50: 0.003 µg/mL (≈ 0.00893 µM)
HIV-1/103-Asn
  EC50: 0.006 µg/mL (≈ 0.0179 µM)
HIV-1/106-Ala
  EC50: 0.005 µg/mL (≈ 0.0149 µM)
HIV-1/Lys-138
  EC50: 0.005 µg/mL (≈ 0.0149 µM)
HIV-1/181-Cys
  EC50: 0.011 µg/mL (≈ 0.0328 µM)
HIV-1/188-Leu
  EC50: 0.5 µg/mL (≈ 1.49 µM)
In vitro
  CC50: > 100 µg/mL
HIV-1 RT mutant strains
  EC50: 0.003 to 0.011 µg/mL (≈ 0.00893 to 0.0328 µM)
[1]
  EC50 values against HIV-1(IIIB) and the HIV-1 RT mutants (in words): extremely low, and virtually similar EC50 values

## CC(C)=CCOc1cc(NC(=S)c2ccsc2C)ccc1Cl [Compound IB, N-[4-chloro-3-(3-methyl-2-butenyloxy)-phenyl]-2-methyl-3thiophenecarbothioamide]
HIV-1(IIIB)
  EC50: 0.003 µg/mL (≈ 0.00852 µM)
HIV-1/100-Ile
  EC50: 0.004 µg/mL (≈ 0.0114 µM)
HIV-1/103-Asn
  EC50: 0.004 µg/mL (≈ 0.0114 µM)
HIV-1/106-Ala
  EC50: 0.005 µg/mL (≈ 0.0142 µM)
HIV-1/Lys-138
  EC50: 0.005 µg/mL (≈ 0.0142 µM)
HIV-1/181-Cys
  EC50: 0.005 µg/mL (≈ 0.0142 µM)
HIV-1/188-Leu
  EC50: 0.6 µg/mL (≈ 1.7 µM)
In vitro
  CC50: 5.8 µg/mL (≈ 16.5 µM)
HIV-1 RT mutant strains
  EC50: 0.003 to 0.011 µg/mL (≈ 0.00852 to 0.0313 µM)
[1]
  EC50 values against HIV-1(IIIB) and the HIV-1 RT mutants (in words): extremely low, and virtually similar EC50 values

## CC(C)=CCN1Cc2cccc3[nH]c(=S)n(c23)C[C@@H]1C [Compound R82150]
[2]
  resistance of 100 Leu →Ile RT mutant strains: resistant

## CC(C)=CCN1Cc2cc(Cl)cc3[nH]c(=S)n(c23)C[C@@H]1C [TIBO R82913]
[2]
  resistance of 100 Leu →Ile RT mutant strains: resistant

## Cc1ccnc2c1NC(=O)c1cccnc1N2C1CC1 [nevirapine]
[3]
  resistance of 181 Tyr →Cys RT mutant viruses: resistant
